As a reminder, the DC50 is the midpoint of the concentration-degradation curve. Lower therefore signals a more potent degrader.

This passage reports DC50 results from patent US20240343733A1, “COMPOUNDS FOR TARGETING DEGRADATION OF IRAK4 PROTEINS” (BIOGEN MA INC., priority 2021, published 2024).

For this assay, the target named is T1, IRAK4 (Homo sapiens, UniProt Q9NWZ3).
T1 construct: 293Tcells expressing HiBiT-tagged IRAK4 were then added into 384-well plates
T1 sequence (Q9NWZ3 1-460): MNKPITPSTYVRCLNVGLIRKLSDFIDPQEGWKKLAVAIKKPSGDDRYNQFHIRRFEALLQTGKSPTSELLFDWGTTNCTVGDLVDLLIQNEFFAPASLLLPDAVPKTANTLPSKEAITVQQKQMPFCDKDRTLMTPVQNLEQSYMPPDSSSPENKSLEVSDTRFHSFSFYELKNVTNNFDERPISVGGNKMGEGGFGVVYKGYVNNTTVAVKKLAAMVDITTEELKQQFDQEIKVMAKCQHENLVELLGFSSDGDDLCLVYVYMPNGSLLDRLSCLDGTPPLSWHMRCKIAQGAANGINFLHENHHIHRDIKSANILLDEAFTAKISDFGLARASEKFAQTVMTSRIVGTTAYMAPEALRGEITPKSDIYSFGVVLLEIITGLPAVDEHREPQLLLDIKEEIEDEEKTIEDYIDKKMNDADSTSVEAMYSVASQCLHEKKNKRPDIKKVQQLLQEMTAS
Put plainly: IRAK4 Degradation Assay, HiBiT Method. The note with it: 293T cells expressing HiBiT-tagged IRAK4, 6 hours. The assay is classed as cell-based. The method, boiled down:
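293T cells with HiBiT knocked in at the C-terminus of endogenous IRAK4, 10,000 per well, treated 6 h at 37 °C with an 11-point half-log series ([…]), in duplicate. Remaining IRAK4 read by Nano-Glo HiBiT lytic luminescence against DMSO-only and media-only controls.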
In general terms: The HiBiT peptide binds its large partner to form an active luciferase.
In the case of `CC(C)Oc1cc2nn(C3CCN(C(=O)CN4CCC(c5ccc(C6CCC(=O)NC6=O)cc5)CC4)CC3)cc2cc1C(=O)Nc1cnn2cccnc12` (stereo not shown) [Example 56, 2-(1-(2-(4-(4-(2,6-dioxopiperidin-3-yl)phenyl)piperidin-1-yl)acetyl)piperidin-4-yl)-6-isopropoxy-N-(pyrazolo[1,5-a]pyrimidin-3-yl)-2H-indazole-5-carboxamide], the 50% degradation concentration (DC50) was less than 10 nM.
`CC(C)Oc1cc2nc([C@H]3CC[C@H](CN4CCN(c5ccc(C6CCC(=O)NC6=O)cn5)CC4)CC3)cn2cc1C(=O)Nc1cccn([C@H]2C[C@H]2F)c1=O` (stereo partly drawn) [Example 180, 2-((1r,4S)-4-((4-(5-(2,6-dioxopiperidin-3-yl)pyridin-2-yl)piperazin-1-yl)methyl)cyclohexyl)-N-(1-((1S,2R)-2-fluorocyclopropyl)-2-oxo-1,2-dihydropyridin-3-yl)-7-isopropoxyimidazo[1,2-a]pyridine-6-carboxamide] registered a DC50 of 10 to 100 nM.
`CC(C)Oc1cc2nn(C3CCN(C(=O)CC4(O)CCN(c5cc(F)c(NC6CCC(=O)NC6=O)cc5F)CC4)CC3)cc2cc1C(=O)Nc1cccc(C(F)F)n1` (stereo not shown) [Example 66, N-(6-(difluoromethyl)pyridin-2-yl)-2-(1-(2-(1-(4-((2,6-dioxopiperidin-3-yl)amino)-2,5-difluorophenyl)-4-hydroxypiperidin-4-yl)acetyl)piperidin-4-yl)-6-isopropoxy-2H-indazole-5-carboxamide] yielded a DC50 of 10 to 100 nM.
Consider `CC(C)Oc1cc2nc([C@H]3CC[C@H](CN(C)C4CCN(Cc5cccc(NC6CCC(=O)NC6=O)c5)CC4)CC3)cn2cc1C(=O)Nc1cccc(C(F)F)n1` (stereo partly shown) [Example 34, N-[6-(difluoromethyl)-2-pyridyl]-2-[4-[[[1-[[3-[(2,6-dioxo-3-piperidyl)amino]phenyl]methyl]-4-piperidyl]-methyl-amino]methyl]cyclohexyl]-7-isopropoxy-imidazo[1,2-a]pyridine-6-carboxamide], for which the 50% degradation concentration (DC50) was 100 to 500 nM.
For `Cc1cn(C2CCC(=O)NC2=O)c2ccc(C3CCN(C[C@H]4CC[C@H](c5cn6cc(C(=O)Nc7cccc(C(F)F)n7)c(OC(C)C)cc6n5)CC4)CC3)cc12` (stereo partly shown) [Example 44, N-[6-(difluoromethyl)-2-pyridyl]-2-[4-[[4-[1-(2,6-dioxo-3-piperidyl)-3-methyl-indol-5-yl]-1-piperidyl]methyl]cyclohexyl]-7-isopropoxy-imidazo[1,2-a]pyridine-6-carboxamide], the 50% degradation concentration (DC50) was in the range of 10 to 100 nM.
In turn, `CC(C)Oc1cc2nc(C3CCN(C(=O)CC4(O)CCN(c5cc(F)c(NC6CCC(=O)NC6=O)cc5F)CC4)CC3)cn2cc1C(=O)Nc1cccc(C(F)(F)F)n1` (stereo not shown) [Example 74, 2-[1-[2-[1-[4-[(2,6-dioxo-3-piperidyl)amino]-2,5-difluoro-phenyl]-4-hydroxy-4-piperidyl]acetyl]-4-piperidyl]-7-isopropoxy-N-[6-(trifluoromethyl)-2-pyridyl]imidazo[1,2-a]pyridine-6-carboxamide] displayed a DC50 of 10 to 100 nM.
Take `CC(C)Oc1cc2nn(C3CCN(C(=O)CC4CCN(c5ncc6c(n5)n(C)c(=O)n6C5CCC(=O)NC5=O)CC4)CC3)cc2cc1C(=O)Nc1cccn([C@H]2C[C@H]2F)c1=O` (stereo partly drawn) [Example 150, 2-(1-(2-(1-(7-(2,6-dioxopiperidin-3-yl)-9-methyl-8-oxo-8,9-dihydro-7H-purin-2-yl)piperidin-4-yl)acetyl)piperidin-4-yl)-N-(1-((1S,2R)-2-fluorocyclopropyl)-2-oxo-1,2-dihydropyridin-3-yl)-6-isopropoxy-2H-indazole-5-carboxamide]: the DC50 was less than 10 nM.
Molecule `CC(C)Oc1cc2nc([C@H]3CC[C@H](CN4CCC(c5ccc(NC6CCC(=O)NC6=O)cc5F)CC4)CC3)cn2cc1C(=O)Nc1cccc(C(F)F)n1` (stereo partly shown) [Example 18, N-[6-(difluoromethyl)-2-pyridyl]-2-[4-[[4-[4-[(2,6-dioxo-3-piperidyl)amino]-2-fluoro-phenyl]-1-piperidyl]methyl]cyclohexyl]-7-isopropoxy-imidazo[1,2-a]pyridine-6-carboxamide] displayed a DC50 of 10 to 100 nM.
The molecule `Cc1cnc2c(NC(=O)c3cn4cc([C@H]5CC[C@H](CN6CCC(c7ccc8c(c7)n(C)c(=O)n8C7CCC(=O)NC7=O)CC6)CC5)nc4cc3OC(C)C)cnn2c1` (stereo partly shown) [Example 51, 2-[4-[[4-[1-(2,6-dioxo-3-piperidyl)-3-methyl-2-oxo-benzimidazol-5-yl]-1-piperidyl]methyl]cyclohexyl]-7-isopropoxy-N-(6-methylpyrazolo[1,5-a]pyrimidin-3-yl)imidazo[1,2-a]pyridine-6-carboxamide] had a DC50 of less than 10 nM.
`CC(C)Oc1cc2nn(C3CCN(C(=O)CC4(O)CCN(c5ncc(C6CCC(=O)NC6=O)cc5F)CC4)CC3)cc2cc1C(=O)Nc1cccn([C@H]2C[C@H]2F)c1=O` (stereo partly drawn) [Example 152, 2-(1-(2-(1-(5-(2,6-dioxopiperidin-3-yl)-3-fluoropyridin-2-yl)-4-hydroxypiperidin-4-yl)acetyl)piperidin-4-yl)-N-(1-((S,2R)-2-fluorocyclopropyl)-2-oxo-1,2-dihydropyridin-3-yl)-6-isopropoxy-2H-indazole-5-carboxamide]: the DC50 is less than 10 nM.
Regarding `CC(C)Oc1cc2nn(C3CCN(C(=O)NC4CCN(c5ncc(C6CCC(=O)NC6=O)cc5F)CC4)CC3)cc2cc1C(=O)Nc1cccn([C@H]2C[C@H]2F)c1=O` (stereo partly drawn) [Example 154, 2-(1-((1-(5-(2,6-dioxopiperidin-3-yl)-3-fluoropyridin-2-yl)piperidin-4-yl)carbamoyl)piperidin-4-yl)-N-(1-((1S,2R)-2-fluorocyclopropyl)-2-oxo-1,2-dihydropyridin-3-yl)-6-isopropoxy-2H-indazole-5-carboxamide], the DC50 is less than 10 nM.
In turn, `CC(C)Oc1cc2nc([C@H]3CC[C@H](CN4CCC(c5ccc(C6CCC(=O)NC6=O)cc5)C(F)(F)C4)CC3)cn2cc1C(=O)Nc1cccc(C(F)F)n1` (stereo partly shown) [Example 25, N-[6-(difluoromethyl)-2-pyridyl]-2-[4-[[4-[4-(2,6-dioxo-3-piperidyl)phenyl]-3,3-difluoro-1-piperidyl]methyl]cyclohexyl]-7-isopropoxy-imidazo[1,2-a]pyridine-6-carboxamide] yielded a 50% degradation concentration (DC50) of 100 to 500 nM.
On to `CC(C)Oc1cc2nc(C3CCN(C(=O)CC4CCN(c5ccc(C6CCC(=O)NC6=O)cn5)CC4)CC3)cn2cc1C(=O)Nc1cccn([C@H]2C[C@H]2F)c1=O` (stereo partly drawn) [Example 160, 2-(1-(2-(1-(5-(2,6-dioxopiperidin-3-yl)pyridin-2-yl)piperidin-4-yl)acetyl)piperidin-4-yl)-N-(1-((1S,2R)-2-fluorocyclopropyl)-2-oxo-1,2-dihydropyridin-3-yl)-7-isopropoxyimidazo[1,2-a]pyridine-6-carboxamide], for which the DC50 is less than 10 nM.
Consider `CC(C)Oc1cc2nn([C@H]3CC[C@H](CN4CCN(c5ncc(C6CCC(=O)NC6=O)cc5F)CC(O)C4)CC3)cc2cc1C(=O)Nc1cccn([C@H]2C[C@H]2F)c1=O` (stereo partly drawn) [Example 119, 2-((1r,4S)-4-((4-(5-(2,6-dioxopiperidin-3-yl)-3-fluoropyridin-2-yl)-6-hydroxy-1,4-diazepan-1-yl)methyl)cyclohexyl)-N-(1-((1S,2R)-2-fluorocyclopropyl)-2-oxo-1,2-dihydropyridin-3-yl)-6-isopropoxy-2H-indazole-5-carboxamide], for which the DC50 was less than 10 nM.
In turn, `CC(C)Oc1cc2nc(C3CCN(C(=O)CC4CCN(c5cnc(C6CCC(=O)NC6=O)cn5)CC4)CC3)cn2cc1C(=O)Nc1cccn([C@H]2C[C@H]2F)c1=O` (stereo partly shown) [Example 189] registered a DC50 of less than 10 nM.
Take `CC(C)Oc1cc2nc([C@H]3CC[C@H](CN4CCC(c5cccc(NC6CCC(=O)NC6=O)c5)CC4)CC3)cn2cc1C(=O)Nc1cccc(C(F)(F)F)n1` (stereo partly shown) [Example 12, 2-[4-[[4-[3-[(2,6-dioxo-3-piperidyl)amino]phenyl]-1-piperidyl]methyl]cyclohexyl]-7-isopropoxy-N-[6-(trifluoromethyl)-2-pyridyl]imidazo[1,2-a]pyridine-6-carboxamide]: the DC50 is 100 to 500 nM.
Regarding `CC(C)Oc1cc2nc(C3CCN(C(=O)CN4CCC(c5ccc6c(C7CCC(=O)NC7=O)nn(C)c6c5)C(F)(F)C4)CC3)cn2cc1C(=O)Nc1cccc(C(F)F)n1` (stereo not shown) [Example 78, N-[6-(difluoromethyl)-2-pyridyl]-2-[1-[2-[4-[3-(2,6-dioxo-3-piperidyl)-1-methyl-indazol-6-yl]-3,3-difluoro-1-piperidyl]acetyl]-4-piperidyl]-7-isopropoxy-imidazo[1,2-a]pyridine-6-carboxamide], the DC50 lay within 10 to 100 nM.
For the molecule `CC(C)Oc1nc2nc(C3CCC(CN4CCC(c5cc6c(cc5F)c(N5CCC(=O)NC5=O)nn6C)CC4)CC3)cn2cc1C(=O)Nc1cccn([C@H]2C[C@H]2F)c1=O` (stereo partly drawn) [Example 197, 2-[4-[[4-[3-(2,4-dioxohexahydropyrimidin-1-yl)-5-fluoro-1-methyl-indazol-6-yl]-1-piperidyl]methyl]cyclohexyl]-N-[1-[(1S,2R)-2-fluorocyclopropyl]-2-oxo-3-pyridyl]-7-isopropoxy-imidazo[1,2-a]pyrimidine-6-carboxamide], the DC50 was less than 10 nM.
The molecule `CC(C)Oc1cc2nc([C@H]3CC[C@H](CN4CCC(c5ccc6c(c5)n(C)c(=O)n6C5CCC(=O)NC5=O)CC4)CC3)cn2cc1C(=O)Nc1cccc(C(F)F)n1` (stereo partly shown) [Example 19, N-[6-(difluoromethyl)-2-pyridyl]-2-[4-[[4-[1-(2,6-dioxo-3-piperidyl)-3-methyl-2-oxo-benzimidazol-5-yl]-1-piperidyl]methyl]cyclohexyl]-7-isopropoxy-imidazo[1,2-a]pyridine-6-carboxamide] came in with a DC50 of less than 10 nM.
